According to PubChem BioAssay (NCI):
Several values for one entry are separate records, joined by “and”; a condition that tells them apart may be missing. Equal values may be shown once.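 The compound was tested at five concentrations on cells cultured in 96-well plates, with a 48-hour exposure period. Here, GI50 denotes the concentration required for 50% inhibition of growth. The concentration for full growth arrest is given as TGI.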

Legend:
Experiment in all cases: growth of human tumour cells (NCI), 48 h
U251 CNS = test system: U251 CNS
OVCAR-4 ovarian = test system: OVCAR-4 ovarian
NCI-H522 lung = test system: NCI-H522 lung
SNB-19 CNS = test system: SNB-19 CNS
XF 498 CNS = test system: XF 498 CNS
MALME-3M melanoma = test system: MALME-3M melanoma
HOP-92 NSCLC = test system: HOP-92 NSCLC
RXF-631 renal = test system: RXF-631 renal
OVCAR-8 ovarian = test system: OVCAR-8 ovarian
SW-620 colon = test system: SW-620 colon
K-562 leukemia = test system: K-562 leukemia
IGROV1 ovarian = test system: IGROV1 ovarian
A549 NSCLC = test system: A549 NSCLC
KM12 colon = test system: KM12 colon
UACC-257 melanoma = test system: UACC-257 melanoma
UACC-62 melanoma = test system: UACC-62 melanoma
OVCAR-5 ovarian = test system: OVCAR-5 ovarian
HCC-2998 colon = test system: HCC-2998 colon
RPMI-8226 leukemia = test system: RPMI-8226 leukemia
OVCAR-3 ovarian = test system: OVCAR-3 ovarian
DMS 114 small cell lung = test system: DMS 114 small cell lung
NCI-H23 lung = test system: NCI-H23 lung
SK-MEL-2 melanoma = test system: SK-MEL-2 melanoma
LOX IMVI melanoma = test system: LOX IMVI melanoma
COLO 205 colon = test system: COLO 205 colon
NCI-H460 lung = test system: NCI-H460 lung
LXFL 529 NSCLC = test system: LXFL 529 NSCLC
DMS 273 small cell lung = test system: DMS 273 small cell lung
786-0 renal = test system: 786-0 renal
HT29 colon = test system: HT29 colon
HOP-62 NSCLC = test system: HOP-62 NSCLC
CAKI-1 renal = test system: CAKI-1 renal
DLD-1 colon = test system: DLD-1 colon
SF-268 CNS = test system: SF-268 CNS
TK-10 renal = test system: TK-10 renal
HCT-15 colon = test system: HCT-15 colon
RXF 393 renal = test system: RXF 393 renal
SR leukemia = test system: SR leukemia
SNB-75 CNS = test system: SNB-75 CNS
EKVX NSCLC = test system: EKVX NSCLC
SN12C renal = test system: SN12C renal
SF-295 CNS = test system: SF-295 CNS
HCT-116 colon = test system: HCT-116 colon
SF-539 CNS = test system: SF-539 CNS
NCI-H226 lung = test system: NCI-H226 lung
ACHN renal = test system: ACHN renal
SNB-78 CNS = test system: SNB-78 CNS
HOP-18 NSCLC = test system: HOP-18 NSCLC
SK-OV-3 ovarian = test system: SK-OV-3 ovarian
SK-MEL-28 melanoma = test system: SK-MEL-28 melanoma
A498 renal = test system: A498 renal
MOLT-4 leukemia = test system: MOLT-4 leukemia
KM20L2 colon = test system: KM20L2 colon
HL-60(TB) leukemia = test system: HL-60(TB) leukemia
M14 melanoma = test system: M14 melanoma
CCRF-CEM leukemia = test system: CCRF-CEM leukemia
M19-MEL melanoma = test system: M19-MEL melanoma
SK-MEL-5 melanoma = test system: SK-MEL-5 melanoma
UO-31 renal = test system: UO-31 renal

Compound: COc1cc(CN[C@H]2CCc3cc(OC)c(OC)c(OC)c3-c3ccc(SC)c(=O)cc32)cc(OC)c1
- GI50 (U251 CNS): 24.7 nM
- TGI (U251 CNS): 87.3 nM and 63.5 nM
- TGI (OVCAR-4 ovarian): > 100000 nM
- GI50 (NCI-H522 lung): 21.2 nM
- TGI (NCI-H522 lung): 67.7 nM and 52 nM
- TGI (SNB-19 CNS): > 100000 nM
- TGI (XF 498 CNS): 977 nM
- GI50 (MALME-3M melanoma): < 10 nM
- TGI (MALME-3M melanoma): > 100000 nM
- GI50 (HOP-92 NSCLC): 207 nM
- TGI (HOP-92 NSCLC): 68700 nM
- TGI (RXF-631 renal): 358 nM
- GI50 (OVCAR-8 ovarian): 40 nM
- TGI (OVCAR-8 ovarian): 31800 nM
- GI50 (SW-620 colon): < 10 nM
- TGI (SW-620 colon): > 100000 nM
- TGI (K-562 leukemia): 10400 nM
- GI50 (IGROV1 ovarian): 69 nM
- TGI (IGROV1 ovarian): > 100000 nM
- TGI (A549 NSCLC): > 100000 nM
- GI50 (KM12 colon): < 10 nM
- TGI (KM12 colon): 482 nM and 137 nM
- GI50 (UACC-257 melanoma): 103 nM
- TGI (UACC-257 melanoma): > 100000 nM
- TGI (UACC-62 melanoma): 60.5 nM
- GI50 (OVCAR-5 ovarian): > 100000 nM
- TGI (OVCAR-5 ovarian): > 100000 nM
- GI50 (HCC-2998 colon): 20.4 nM
- TGI (HCC-2998 colon): 108 nM and 74.8 nM
- TGI (RPMI-8226 leukemia): 24200 nM
- GI50 (OVCAR-3 ovarian): 14.5 nM
- TGI (OVCAR-3 ovarian): 127 nM and 44.4 nM
- GI50 (DMS 114 small cell lung): 16.6 nM
- TGI (DMS 114 small cell lung): 50.5 nM and 61.3 nM
- GI50 (NCI-H23 lung): 22.8 nM
- TGI (NCI-H23 lung): 78.6 nM and 492 nM
- GI50 (SK-MEL-2 melanoma): 18.4 nM
- TGI (SK-MEL-2 melanoma): 474 nM
- GI50 (LOX IMVI melanoma): 17.3 nM
- GI50 (COLO 205 colon): 14.5 nM
- TGI (COLO 205 colon): 105 nM and 81.6 nM
- GI50 (NCI-H460 lung): 31 nM
- GI50 (LXFL 529 NSCLC): 21.4 nM
- TGI (LXFL 529 NSCLC): > 100000 nM
- GI50 (DMS 273 small cell lung): < 10 nM
- TGI (DMS 273 small cell lung): 140 nM
- GI50 (786-0 renal): 30.7 nM
- TGI (786-0 renal): 30800 nM
- GI50 (HT29 colon): < 10 nM
- TGI (HT29 colon): 62.7 nM and 25.1 nM
- GI50 (HOP-62 NSCLC): 81.4 nM
- TGI (HOP-62 NSCLC): > 100000 nM
- GI50 (CAKI-1 renal): 28.2 nM
- TGI (CAKI-1 renal): > 100000 nM
- GI50 (DLD-1 colon): 23.2 nM
- TGI (DLD-1 colon): > 100000 nM
- GI50 (SF-268 CNS): 24.8 nM
- GI50 (TK-10 renal): 41.2 nM
- TGI (TK-10 renal): 77100 nM
- TGI (HCT-15 colon): 239 nM
- TGI (RXF 393 renal): 37.2 nM
- TGI (SR leukemia): 19400 nM
- TGI (SNB-75 CNS): 64.1 nM
- GI50 (EKVX NSCLC): 28.7 nM
- TGI (EKVX NSCLC): > 100000 nM
- GI50 (SN12C renal): 62.3 nM
- TGI (SN12C renal): > 100000 nM
- GI50 (SF-295 CNS): 18.7 nM
- GI50 (HCT-116 colon): < 10 nM
- TGI (HCT-116 colon): 174 nM and 127 nM
- GI50 (SF-539 CNS): 17.3 nM
- TGI (SF-539 CNS): 45.5 nM and 42.4 nM
- GI50 (NCI-H226 lung): 23.1 nM
- TGI (NCI-H226 lung): 95 nM and 91.9 nM
- GI50 (ACHN renal): 66.2 nM
- TGI (ACHN renal): > 100000 nM
- GI50 (SNB-78 CNS): < 10 nM
- TGI (SNB-78 CNS): > 100000 nM
- GI50 (HOP-18 NSCLC): > 100000 nM
- TGI (HOP-18 NSCLC): > 100000 nM
- GI50 (SK-OV-3 ovarian): 17.1 nM
- GI50 (SK-MEL-28 melanoma): < 10 nM
- TGI (SK-MEL-28 melanoma): > 100000 nM
- TGI (A498 renal): 167 nM
- GI50 (MOLT-4 leukemia): 47.6 nM
- TGI (MOLT-4 leukemia): 85500 nM
- GI50 (KM20L2 colon): 13 nM
- TGI (KM20L2 colon): 42.5 nM and 30.7 nM
- GI50 (HL-60(TB) leukemia): 24 nM
- TGI (HL-60(TB) leukemia): > 100000 nM

Compound: O=[N+]([O-])c1ccc(C2N3CCCCC3[C@H]3CCCCN23)cc1 (some centres not stated)
- TGI (U251 CNS): > 100000 nM
- TGI (OVCAR-4 ovarian): > 100000 nM
- TGI (NCI-H522 lung): > 100000 nM
- TGI (SNB-19 CNS): > 100000 nM
- TGI (XF 498 CNS): > 100000 nM
- TGI (MALME-3M melanoma): > 100000 nM
- TGI (HOP-92 NSCLC): > 100000 nM
- TGI (M14 melanoma): > 100000 nM
- TGI (RXF-631 renal): > 100000 nM
- TGI (OVCAR-8 ovarian): > 100000 nM
- TGI (SW-620 colon): > 100000 nM
- TGI (CCRF-CEM leukemia): > 100000 nM
- TGI (K-562 leukemia): > 100000 nM
- TGI (IGROV1 ovarian): > 100000 nM
- TGI (A549 NSCLC): > 100000 nM
- TGI (KM12 colon): > 100000 nM
- TGI (UACC-257 melanoma): > 100000 nM
- TGI (UACC-62 melanoma): > 100000 nM
- TGI (OVCAR-5 ovarian): > 100000 nM
- TGI (RPMI-8226 leukemia): > 100000 nM
- TGI (OVCAR-3 ovarian): > 100000 nM
- TGI (NCI-H23 lung): > 100000 nM
- TGI (SK-MEL-2 melanoma): > 100000 nM
- TGI (M19-MEL melanoma): > 100000 nM
- TGI (LOX IMVI melanoma): > 100000 nM
- TGI (COLO 205 colon): > 100000 nM
- TGI (NCI-H460 lung): > 100000 nM
- TGI (LXFL 529 NSCLC): > 100000 nM
- TGI (DMS 273 small cell lung): > 100000 nM
- TGI (786-0 renal): > 100000 nM
- TGI (HT29 colon): > 100000 nM
- TGI (HOP-62 NSCLC): > 100000 nM
- TGI (CAKI-1 renal): > 100000 nM
- TGI (DLD-1 colon): > 100000 nM
- TGI (SF-268 CNS): > 100000 nM
- TGI (TK-10 renal): > 100000 nM
- TGI (HCT-15 colon): > 100000 nM
- TGI (RXF 393 renal): > 100000 nM
- TGI (SR leukemia): > 100000 nM
- TGI (SNB-75 CNS): > 100000 nM
- TGI (EKVX NSCLC): > 100000 nM
- TGI (SN12C renal): > 100000 nM
- TGI (SF-295 CNS): > 100000 nM
- TGI (HCT-116 colon): > 100000 nM
- TGI (SK-MEL-5 melanoma): > 100000 nM
- TGI (SF-539 CNS): > 100000 nM
- TGI (NCI-H226 lung): > 100000 nM
- TGI (ACHN renal): > 100000 nM
- TGI (SNB-78 CNS): > 100000 nM
- TGI (UO-31 renal): > 100000 nM
- TGI (HOP-18 NSCLC): > 100000 nM
- TGI (SK-OV-3 ovarian): > 100000 nM
- TGI (SK-MEL-28 melanoma): > 100000 nM
- TGI (A498 renal): > 100000 nM
- TGI (MOLT-4 leukemia): > 100000 nM
- TGI (KM20L2 colon): > 100000 nM
- TGI (HL-60(TB) leukemia): > 100000 nM
